In article PMC6441926 (Molecular Oncology, 2019):
One block for each compound: values may come before it. Residues, ends and D or L forms follow the SMILES beside them. *: point of attachment. Cbz = O=C(OCc1ccccc1)*

Legend:
PI3Ka = PI3Ka (Homo sapiens, UniProt P42336); assay: Kinase inhibition ELISA, PI3Ka; type: biochemical; settings: ELISA kinase assay
Description: (§1) ELISA was used to determine the inhibitory effect of Ibr‐7 on five kinases after molecular modification. […] Since p‐S6 is the downstream functional factor that controls the translational process, we attempted to determine the role of p‐S6 in the Ibr‐7 antitumor effect.

mTOR [1] = molecular target: mTOR (Homo sapiens, UniProt P42345); assay: Kinase inhibition ELISA, mTOR; type: biochemical; settings: ELISA kinase assay
Description: as §1

[2] = tested on: primary lung cancer cells; assay: Collagen gel droplet embedded 3D-culture (CD-DST) of primary lung cancer cells; type: cell-based; settings: Homo sapiens; 15 primary lung cancer samples, 4 μM for 24 h, then cultured another 5 days, neutral red; read-out: viable cell percentage
Experimental: Collagen gel droplet embedded 3D‐culture system (CD‐DST) system was performed using a Tumor chemo‐sensitivity assay kit provided by Guangzhou Darui Biotechnology Co., Ltd (Guangzhou, China) (Hou et al., 2017). Briefly, 0.1–0.5 g freshly dissected human lung cancer tissues were digested by trypsin and incubated in collagen gel‐coated flasks. Then, cells were collected and incubated in a collagen gel droplet at the density of 4000 cells per droplet (the volume of each droplet was 30 μL). […] Cells were visualized by neutral red stain and observed using cell analysis system DR6690 (Guangzhou Darui Biotechnology Co., Ltd). Survival rates were calculated as (absorbance 540 nm of treatment group/absorbance 540 nm of control group) × 100%.
Table S2. Cell viability of 15 primary lung cancer cells after treatment with 4 μM of compounds for 24 h, and cultured for another 120 h before neutral red stain and fixation. Cell viability was calculated observed using specific cell analysis system DR6690 (Guangzhou Darui Biotechnology Co., Ltd, Guangzhou, China). Survival rates were calculated as (O.D. 540nm treatment group/O.D. 540nm control group) × 100%.

A549 cells = assay: CCK-8 cell viability assay, A549; type: cell-based; settings: for IC50: Homo sapiens, A549, CCK-8, 48 h, EGFR wild-type
Experimental: Cell proliferation was measured by Cell Counting Kit‐8 (CCK‐8) assay (Bestbio, Shanghai, China). Cells were cultured in 96‐well plates at a concentration of 7 × 10^3/well for 24 h. If necessary, cells were pretreated with 25 or 50 μM of Z‐VAD‐FMK for 4 h. […] Supernatant was totally removed and 100 μL of CCK‐8 solution was added to each well and cultured for another 2 h at 37 °C. Cell viability was quantified using a SpectraMax M2e (Molecular Devices, San Jose, CA, USA) at 450 nm. Cell viability was calculated for each well as (absorbance 450 nm of treated cells/absorbance 450 nm of control cells) × 100%. Assays were performed on three independent experiments.

H1975 cells = assay: CCK-8 cell viability assay, H1975; type: cell-based; settings: Homo sapiens, NCI-H1975; CCK-8, 48 h, EGFR L858R/T790M
Experimental: (§2) Cell proliferation was measured by Cell Counting Kit‐8 (CCK‐8) assay (Bestbio, Shanghai, China). Cells were cultured in 96‐well plates at a concentration of 7 × 10^3/well for 24 h. If necessary, cells were pretreated with 25 or 50 μM of Z‐VAD‐FMK for 4 h. Then cells were treated with indicated concentrations of compounds for 48 h. Supernatant was totally removed and 100 μL of CCK‐8 solution was added to each well and cultured for another 2 h at 37 °C. Cell viability was quantified using a SpectraMax M2e (Molecular Devices, San Jose, CA, USA) at 450 nm. Cell viability was calculated for each well as (absorbance 450 nm of treated cells/absorbance 450 nm of control cells) × 100%. Assays were performed on three independent experiments.

Mcl-1 = assay: Western blot of Mcl-1 protein level in A549 cells; type: cell-based; settings: 8 h
Experimental: After treated with different concentrations of compounds, total proteins were extracted using RIPA lysing buffer. […] The membranes were blocked with 5% non‐fat milk at room temperature for 1 h, and then incubated with primary antibodies overnight at 4 °C. After washing with Tris buffered saline with Tween 20 (TBST), membranes were incubated with secondary antibodies at room temperature for another 1 h. The protein bands were visualized by adding ECL system WBKLS0050 (EMD Millipore, Billerica, MA, USA) and analyzed using Bio‐Rad Laboratories Quantity One software (Bio‐Rad).

p70S6K = p70S6K (Homo sapiens, UniProt P23443); assay: Kinase inhibition ELISA, p70S6K; type: biochemical; settings: ELISA kinase assay
Description: as §1

AKT1 = AKT1 (Homo sapiens, UniProt P31749); assay: Kinase inhibition ELISA, AKT1; type: biochemical; settings: ELISA kinase assay
Description: as §1

EGFR [3] = molecular target: T1, EGFR (Homo sapiens, UniProt P00533); assay: Kinase inhibition ELISA, EGFR; type: biochemical; settings: ELISA kinase assay
Description: as §1

PC-9 cells = assay: CCK-8 cell viability assay, PC-9; type: cell-based; settings: Homo sapiens, CCK-8, 48 h, EGFR exon 19 deletion
Experimental: as §2

H460 cells = assay: CCK-8 cell viability assay, H460; type: cell-based; settings: Homo sapiens, NCI-H460; CCK-8, 48 h, EGFR wild-type
Experimental: as §2

[4] = Pharmacokinetics in SD rat; type: in vivo; settings: po, intragastric 30 mg/kg
Experimental: Table S3. PK parameters of Ibr-7 in SD rat (i.g 30 mg/kg). Ibr-7 was orally administrated at the dose of 30 mg/kg. At each time point, 0.1 ml of rat blood was gained through retro-orbital plexus and then centrifuged at 5,000 rpm, 4 ℃ for 10 min. 10 μl of sample was mixed with 100 μl of internal reference (Buspirone 50 ng/ml, terfenadine 50 ng/ml), and vortexed for 60 s. After centrifuging at 12,000 rpm for 3 min, the supernatant was collected and transferred to an equal volume of distilled water into the 96-well plate. The final injection volume was 10 μl. Samples were analyzed by LC-MS/MS (API 4000QTRAP) and data was processed by Analyst v 1.5.1.

A549 xenograft = assay: A549 tumor xenograft assay; type: in vivo; settings: A549 xenograft nude mice, 60 mg·kg^−1 intragastric twice per day
Experimental: All animal experiments were conducted according to the Institutional Animal Care and Use Committee (IACUC). A total of 5 × 10^6 A549 cells was resuspended in 200 μL PBS and injected subcutaneously into each 4‐week‐old female nude mice. Once the tumor volume had reached 100–200 mm^3, six mice were randomized into each group. […] Then, 2.375 mL of 20% HP‐beta‐cyclodextrin was added to the above mixture to make a final concentration of 6 mg·mL^−1. […] Tumor volumes were determined from caliper measurements of tumor length (L) and width (W) according to the formula (L × W^2)/2. The relative tumor volume (RTV) was calculated using the following formula: RTV = (tumor volume on measured day)/(tumor volume on day 0).

EGFR [5] = molecular target: T1, EGFR; assay: SILAC phosphoproteomics in A549 cells, EGFR; type: cell-based; settings: 8 μM, 8 h, treated versus untreated
Experimental: (§3) A549 cells were cultured in F12 and supplemented with either (U‐12C6)‐L‐lysine (light) or (U‐13C6)‐L‐lysine (heavy) for at least eight generations. The heavy labeling efficiency was measured by mass spectrometer analysis. Cells were continuously maintained in SILAC medium until they reached the desired confluence. Cells were treated with 8 μM of Ibr‐7 for 8 h, and then harvested by trypsinization. The enriched fractions were analyzed by mass spectrometry.

mTOR [6] = assay: SILAC phosphoproteomics in A549 cells, mTOR; type: cell-based; settings: 8 μM, 8 h, treated versus untreated
Experimental: as §3

RPS6KA1 = assay: SILAC phosphoproteomics in A549 cells, RPS6KA1; type: cell-based; settings: 8 μM, 8 h, treated versus untreated
Experimental: as §3

RPS6 = assay: SILAC phosphoproteomics in A549 cells, RPS6; type: cell-based; settings: 8 μM, 8 h, treated versus untreated
Experimental: as §3

EIF2S2 = assay: SILAC phosphoproteomics in A549 cells, EIF2S2; type: cell-based; settings: 8 μM, 8 h, treated versus untreated
Experimental: as §3

LARP1 = assay: SILAC phosphoproteomics in A549 cells, LARP1; type: cell-based; settings: 8 μM, 8 h, treated versus untreated
Experimental: as §3

T1 sequence (P00533 25-1210): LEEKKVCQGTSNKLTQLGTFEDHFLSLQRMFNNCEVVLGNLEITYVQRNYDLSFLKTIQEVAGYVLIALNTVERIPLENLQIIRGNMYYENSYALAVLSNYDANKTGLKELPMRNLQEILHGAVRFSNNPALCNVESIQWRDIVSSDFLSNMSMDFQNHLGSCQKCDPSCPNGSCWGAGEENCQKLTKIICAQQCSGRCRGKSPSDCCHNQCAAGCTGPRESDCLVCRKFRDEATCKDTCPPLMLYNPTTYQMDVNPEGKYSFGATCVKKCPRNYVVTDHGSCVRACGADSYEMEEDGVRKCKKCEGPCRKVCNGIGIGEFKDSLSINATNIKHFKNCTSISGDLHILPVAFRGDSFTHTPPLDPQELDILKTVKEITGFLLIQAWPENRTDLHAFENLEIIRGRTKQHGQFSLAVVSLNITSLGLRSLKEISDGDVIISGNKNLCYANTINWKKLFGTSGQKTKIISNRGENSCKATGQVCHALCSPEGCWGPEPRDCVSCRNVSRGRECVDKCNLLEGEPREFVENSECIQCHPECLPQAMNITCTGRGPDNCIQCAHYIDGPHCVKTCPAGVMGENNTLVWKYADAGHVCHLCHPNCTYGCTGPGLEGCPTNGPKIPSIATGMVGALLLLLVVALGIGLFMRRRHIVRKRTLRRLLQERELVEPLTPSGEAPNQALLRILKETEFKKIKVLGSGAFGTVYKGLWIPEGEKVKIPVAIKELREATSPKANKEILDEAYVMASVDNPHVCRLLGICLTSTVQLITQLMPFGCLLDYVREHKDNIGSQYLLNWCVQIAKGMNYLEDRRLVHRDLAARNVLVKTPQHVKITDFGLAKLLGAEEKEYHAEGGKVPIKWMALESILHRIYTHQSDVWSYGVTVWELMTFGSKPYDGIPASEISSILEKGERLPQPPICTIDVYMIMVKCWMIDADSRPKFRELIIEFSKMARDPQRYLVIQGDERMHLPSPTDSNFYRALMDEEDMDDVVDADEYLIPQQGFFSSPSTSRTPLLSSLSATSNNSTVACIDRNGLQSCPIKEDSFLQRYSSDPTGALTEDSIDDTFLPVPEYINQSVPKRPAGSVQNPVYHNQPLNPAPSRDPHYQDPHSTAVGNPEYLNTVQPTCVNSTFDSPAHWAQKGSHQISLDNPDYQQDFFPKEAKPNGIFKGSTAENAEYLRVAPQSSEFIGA
Chain of PI3Ka (P42336 whole entry): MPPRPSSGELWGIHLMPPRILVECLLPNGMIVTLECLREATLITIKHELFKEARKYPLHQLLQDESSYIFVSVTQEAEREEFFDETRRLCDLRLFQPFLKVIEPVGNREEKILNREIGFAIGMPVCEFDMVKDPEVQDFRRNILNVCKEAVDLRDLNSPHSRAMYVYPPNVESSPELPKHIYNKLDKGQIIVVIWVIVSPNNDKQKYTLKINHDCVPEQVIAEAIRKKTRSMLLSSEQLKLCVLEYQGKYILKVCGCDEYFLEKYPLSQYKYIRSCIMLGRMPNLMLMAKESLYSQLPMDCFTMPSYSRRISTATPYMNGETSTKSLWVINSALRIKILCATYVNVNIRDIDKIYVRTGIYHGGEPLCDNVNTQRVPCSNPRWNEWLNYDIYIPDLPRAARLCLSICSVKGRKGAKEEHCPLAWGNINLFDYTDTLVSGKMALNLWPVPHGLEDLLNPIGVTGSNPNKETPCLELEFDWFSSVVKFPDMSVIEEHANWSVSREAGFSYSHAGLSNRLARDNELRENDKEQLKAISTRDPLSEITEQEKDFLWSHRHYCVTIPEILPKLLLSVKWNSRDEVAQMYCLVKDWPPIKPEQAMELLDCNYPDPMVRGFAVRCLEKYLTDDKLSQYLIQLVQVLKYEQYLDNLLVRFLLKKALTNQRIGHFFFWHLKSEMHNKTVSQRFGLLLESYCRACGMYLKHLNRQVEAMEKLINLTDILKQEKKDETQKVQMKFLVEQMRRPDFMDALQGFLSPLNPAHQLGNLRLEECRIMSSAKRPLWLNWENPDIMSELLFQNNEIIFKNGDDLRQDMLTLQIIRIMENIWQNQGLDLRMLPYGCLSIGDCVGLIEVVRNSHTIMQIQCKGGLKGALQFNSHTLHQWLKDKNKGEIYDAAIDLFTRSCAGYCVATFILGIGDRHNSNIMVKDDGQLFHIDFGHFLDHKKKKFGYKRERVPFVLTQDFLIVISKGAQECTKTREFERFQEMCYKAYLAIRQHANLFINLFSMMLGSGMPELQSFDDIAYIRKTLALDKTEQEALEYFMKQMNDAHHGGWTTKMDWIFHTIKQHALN
Chain of PI3Ka (P27986 whole entry partner): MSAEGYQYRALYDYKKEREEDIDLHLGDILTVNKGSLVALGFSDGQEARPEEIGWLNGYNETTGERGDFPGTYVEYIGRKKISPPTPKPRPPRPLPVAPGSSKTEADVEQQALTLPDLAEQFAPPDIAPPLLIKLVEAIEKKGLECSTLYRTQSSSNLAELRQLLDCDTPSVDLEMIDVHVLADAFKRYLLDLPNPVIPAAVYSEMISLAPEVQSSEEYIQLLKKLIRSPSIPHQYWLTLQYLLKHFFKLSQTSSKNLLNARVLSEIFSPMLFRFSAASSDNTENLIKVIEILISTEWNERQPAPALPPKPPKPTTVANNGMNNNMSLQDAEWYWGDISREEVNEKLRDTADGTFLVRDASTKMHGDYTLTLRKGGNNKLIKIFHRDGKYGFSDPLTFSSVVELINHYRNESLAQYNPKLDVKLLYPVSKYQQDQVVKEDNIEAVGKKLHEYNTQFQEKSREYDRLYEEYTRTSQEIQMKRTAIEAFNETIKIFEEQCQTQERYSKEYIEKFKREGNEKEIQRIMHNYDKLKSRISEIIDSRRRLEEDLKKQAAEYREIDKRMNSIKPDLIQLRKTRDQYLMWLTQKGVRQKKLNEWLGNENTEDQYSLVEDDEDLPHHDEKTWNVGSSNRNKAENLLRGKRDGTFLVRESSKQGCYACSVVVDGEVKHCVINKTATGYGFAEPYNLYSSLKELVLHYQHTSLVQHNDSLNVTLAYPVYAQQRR
Chain of AKT1 (P31749 whole entry): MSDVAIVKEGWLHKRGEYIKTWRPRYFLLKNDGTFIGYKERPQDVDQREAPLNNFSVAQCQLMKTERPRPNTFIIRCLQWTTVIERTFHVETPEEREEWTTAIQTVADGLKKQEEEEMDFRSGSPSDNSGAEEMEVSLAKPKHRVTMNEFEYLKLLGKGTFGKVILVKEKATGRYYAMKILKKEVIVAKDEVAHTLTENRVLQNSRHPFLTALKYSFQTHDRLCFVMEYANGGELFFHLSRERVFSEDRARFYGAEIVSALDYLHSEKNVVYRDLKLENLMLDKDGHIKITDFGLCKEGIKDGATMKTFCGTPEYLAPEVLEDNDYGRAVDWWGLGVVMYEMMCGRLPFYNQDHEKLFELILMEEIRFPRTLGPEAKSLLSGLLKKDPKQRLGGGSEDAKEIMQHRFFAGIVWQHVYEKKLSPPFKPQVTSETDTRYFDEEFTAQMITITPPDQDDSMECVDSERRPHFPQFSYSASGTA
Chain of p70S6K (P23443 whole entry): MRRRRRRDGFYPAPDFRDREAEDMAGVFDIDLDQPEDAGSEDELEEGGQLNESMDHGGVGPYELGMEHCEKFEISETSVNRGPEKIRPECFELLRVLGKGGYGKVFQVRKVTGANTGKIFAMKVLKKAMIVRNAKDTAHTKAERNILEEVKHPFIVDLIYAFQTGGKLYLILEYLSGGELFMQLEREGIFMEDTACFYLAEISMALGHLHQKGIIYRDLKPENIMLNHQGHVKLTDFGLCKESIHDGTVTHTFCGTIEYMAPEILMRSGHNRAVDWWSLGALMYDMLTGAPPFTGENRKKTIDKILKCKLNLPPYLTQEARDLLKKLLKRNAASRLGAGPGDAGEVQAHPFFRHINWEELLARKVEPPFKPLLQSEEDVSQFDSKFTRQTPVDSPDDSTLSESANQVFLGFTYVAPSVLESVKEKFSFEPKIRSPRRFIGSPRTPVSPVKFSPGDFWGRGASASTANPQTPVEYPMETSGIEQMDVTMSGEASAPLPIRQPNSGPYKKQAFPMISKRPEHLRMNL

SMILES: CC1(C)CCC(CN2CCN(c3ccc(C(=O)NS(=O)(=O)c4ccc(NCC5CCOCC5)c([N+](=O)[O-])c4)c(Oc4cnc5[nH]ccc5c4)c3)CC2)=C(c2ccc(Cl)cc2)C1 [ABT‐199]
- IC50 (A549 cells): > 10 µM
- IC50 (H1975 cells): > 10 µM
- Mcl-1 band intensity (Mcl-1): 1.30

SMILES: CC(C)C[C@@H](C=O)NC(=O)[C@H](CC(C)C)NC(=O)[C@H](CC(C)C)NC(=O)OCc1ccccc1 [MG‐132] (Cbz-Leu-Leu-Leu-aldehyde)
- cytotoxicity on A549 cells (A549 cells; 10 μM, 24 h, CCK-8): no cytotoxicity effect

SMILES: C=CC(=O)Nc1cc(Nc2nccc(-c3cn(C)c4ccccc34)n2)c(OC)cc1N(C)CCN(C)C [AZD‐9291]
- viability at 4 µM [2]: 57%

More lines, main results first:

- IC50 (PI3Ka): > 1 µM
- IC50 (mTOR [1]): > 1 µM
SMILES: C=CC(=O)N1CCC[C@@H](n2nc(-c3ccc(Oc4ccccc4)cc3)c3c(N)ncnc32)C1 [ibrutinib, Ibrutinib, reference compound]
- viability at 4 µM [2]: 88.1%

- IC50 (p70S6K): > 1 µM
- IC50 (AKT1): > 1 µM
- IC50 (EGFR [3]): 0.061 µM
- IC50 (PI3Ka): > 1 µM
- IC50 (mTOR [1]): > 1 µM
- IC50 (A549 cells): 1 to 4 µM
- IC50 (H1975 cells): 1 to 4 µM
- IC50 (PC-9 cells): 1 to 4 µM
- IC50 (H460 cells): 1 to 4 µM
- Cmax [4]: 304 ng/mL
- effect on mice bodyweight (A549 xenograft): without affecting the mice bodyweight
- Decrease fold of phosphorylated EGFR, position 693 (EGFR [5]): 1.76 fold
- Decrease fold of phosphorylated EGFR, position 991 (EGFR [5]): 2.03 fold
SMILES: C=C(Br)C(=O)N1CCCC(n2nc(-c3ccc(Oc4ccccc4)cn3)c3c(N)ncnc32)C1 (centres unmarked) [Ibr‐7]
- viability at 4 µM [2]: 40.3%
- anti-tumor activity by relative tumor volume (RTV) (A549 xenograft): the same anti‐tumor activity as ibrutinib
- Decrease fold of phosphorylated mTOR, position 2481 (mTOR [6]): 2.23 fold
- Decrease fold of phosphorylated RPS6KA1, position 359 (RPS6KA1): 1.59 fold
- Decrease fold of phosphorylated RPS6KA1, position 363 (RPS6KA1): 1.54 fold
- Decrease fold of phosphorylated RPS6, position 244 (RPS6): 2.17 fold
- Decrease fold of phosphorylated EIF2S2, position 67 (EIF2S2): 1.99 fold
- Decrease fold of phosphorylated EIF2S2, position 111 (EIF2S2): 1.58 fold
- Decrease fold of phosphorylated LARP1, position 548 (LARP1): 1.90 fold
- Decrease fold of phosphorylated LARP1, position 766 (LARP1): 4.70 fold
- Decrease fold of phosphorylated LARP1, position 824 (LARP1): 2.34 fold
